Source: patent US6737383B1, “Herbicidal oxadiazolidines” (priority 1999, dated 2004)

Tests used:
bamyardgrass = test: Test B flood test barnyardgrass; format: in vivo, Echinochloa crus-galli
Outline: (§1)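 Read-out is a visual response score from 0 (no effect) to 10 (complete control), assigned by comparison with untreated controls. Treatment was applied at the 2-leaf stage, and plants stayed in the greenhouse for twelve to sixteen days before scoring.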

sugar beet = test: Test B pre/postemergence sugar beet; format: in vivo, Beta vulgaris
Outline: (§2)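 Test chemicals in a non-phytotoxic solvent mixture with surfactant were sprayed preemergence onto planted seeds and postemergence onto plants 2 to 18 cm tall (1- to 4-leaf stage). After twelve to sixteen days in a greenhouse, injury was visually rated against untreated controls from 0 (no effect) to 10 (complete control).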

cocklebur = test: Test B pre/postemergence cocklebur; format: in vivo, Xanthium strumarium
Outline: as §2

smallflower flatsedge = test: Test B flood test smallflower flatsedge; format: in vivo, Cyperus difformis
Outline: as §1

[1] = Rate 62 g/ha, flood test species, Pre-emergence, visual evaluation after twelve to sixteen days
[2] = Rate 125 g/ha, under heading Pre-emergence, flood test species, visual evaluation after twelve to sixteen days
[3] = Rate 250 g/ha, Pre-emergence (flood test species), scale 0 to 10, 0 is no effect, 10 is complete control
[4] = Rate 500 g/ha, Pre-emergence section of Table B, 0 to 10 scale (0 no effect, 10 complete control)
[5] = Postemergence, Rate 62 g/ha, scale 0 to 10, 0 is no effect, 10 is complete control
[6] = Postemergence, Rate 125 g/ha, scale of 0 to 10 where 0 is no effect and 10 is complete control
[7] = Postemergence, Rate 250 g/ha, scale of 0 to 10, 0 is no effect, 10 is complete control
[8] = Preemergence, Rate 62 g/ha, scale 0 to 10 (0 no effect, 10 complete control)
[9] = Preemergence, Rate 125 g/ha, scale of 0 to 10 where 0 is no effect and 10 is complete control
[10] = Preemergence, Rate 250 g/ha, scale 0 to 10 (0 no effect, 10 complete control)
[11] = Preemergence, Rate 500 g/ha, scale of 0 to 10 where 0 is no effect and 10 is complete control
[12] = Postemergence, Rate 500 g/ha, scale of 0 to 10 where 0 is no effect and 10 is complete control
[13] = Rate 62 g/ha, headed Pre-emergence (flood test species), scale 0 to 10 (0 no effect, 10 complete control)
[14] = Rate 125 g/ha, Pre-emergence, flood test species, scale 0 to 10 where 0 is no effect and 10 is complete control
[15] = Rate 250 g/ha, Pre-emergence, flood-test species, scale 0 to 10, 0 is no effect, 10 is complete control
[16] = Rate 500 g/ha, Pre-emergence, flood test species, scale 0 to 10 (0 no effect, 10 complete control)
[17] = Preemergence, Rate 62 g/ha, scale of 0 to 10 where 0 is no effect and 10 is complete control
[18] = Preemergence, Rate 250 g/ha, scale of 0 to 10 where 0 is no effect and 10 is complete control
[19] = Rate 62 g/ha, Postemergence, scale of 0 to 10 where 0 is no effect and 10 is complete control
[20] = Rate 125 g/ha, Postemergence, scale 0 to 10
[21] = Rate 125 g/ha, Preemergence, scale of 0 to 10 where 0 is no effect and 10 is complete control
[22] = Rate 500 g/ha, Postemergence, scale 0 to 10, 0 no effect, 10 complete control
[23] = Postemergence block (flood test species), Rate 250 g/ha, scale 0 to 10
[24] = Postemergence section (flood test species), Rate 500 g/ha, scale of 0 to 10 where 0 is no effect and 10 is complete control
[25] = Rate 62 g/ha, Postemergence (flood test), scale 0 to 10, 0 no effect, 10 complete control
[26] = Rate 125 g/ha, Postemergence section (flood test species), scale 0 to 10, 0 is no effect, 10 is complete control
[27] = Postemergence, Rate 250 g/ha, scale 0 to 10
[28] = Preemergence, Rate 250 g/ha, scale 0 to 10, 0 is no effect, 10 is complete control
[29] = Preemergence, Rate 500 g/ha, scale 0 to 10, 0 is no effect, 10 is complete control
[30] = Rate 62 g/ha, Postemergence, scale 0 to 10 (0 no effect, 10 complete control)
[31] = Rate 125 g/ha, Postemergence, scale 0 to 10, 0 is no effect, 10 is complete control
[32] = Rate 125 g/ha, Postemergence, scale of 0 to 10 where 0 is no effect and 10 is complete control
[33] = Rate 250 g/ha, Postemergence, scale of 0 to 10 where 0 is no effect and 10 is complete control
[34] = Rate 250 g/ha, headed Pre-emergence (flood test species), scale 0 to 10 (0 no effect, 10 complete control)
[35] = Rate 500 g/ha, headed Pre-emergence (flood test species), scale 0 to 10 (0 no effect, 10 complete control)
[36] = Postemergence, Rate 250 g/ha, scale 0 to 10, 0 no effect, 10 complete control
[37] = Preemergence, Rate 125 g/ha, scale 0 to 10 (0 no effect, 10 complete control)
[38] = Preemergence, Rate 500 g/ha, scale 0 (no effect) to 10 (complete control)
[39] = Rate 125 g/ha, Postemergence, scale 0 to 10, 0 no effect, 10 complete control
[40] = Rate 500 g/ha, Postemergence, scale 0 to 10

## COCCn1c(=O)on(C(=O)N(c2ccccc2)C(C)C)c1=O [Compound 631]
bamyardgrass; [1]
  Plant response rating, Barnyardgrass (0 to 10 scale, 0 is no effect, 10 is complete control): 0
bamyardgrass; [2]
  Barnyardgrass plant response rating (0 to 10 scale, 0 is no effect, 10 is complete control): 1
bamyardgrass; [3]
  Barnyardgrass plant response rating: 4
bamyardgrass; [4]
  Barnyardgrass plant response rating: 4
Sugar beet; [5]
  Plant response rating, Sugarbeets: 0
Sugar beet; [6]
  Plant response rating, Sugarbeets: 0
Sugar beet; [7]
  Sugarbeets plant response rating: 0
Sugar beet; [8]
  Sugarbeets plant response rating: 0
Sugar beet; [9]
  Sugarbeets plant response rating: 3
Sugar beet; [10]
  Plant response rating, Sugarbeets: 4
Sugar beet; [11]
  Plant response rating, Sugarbeets: 8
cocklebur; [5]
  Plant response rating, Cocklebur: 0
cocklebur; [6]
  Plant response rating, Cocklebur: 0
cocklebur; [7]
  Cocklebur plant response rating: 0
cocklebur; [12]
  Plant response rating, Cocklebur: 2
cocklebur; [8]
  Cocklebur plant response rating: 0
cocklebur; [9]
  Cocklebur plant response rating: 0
cocklebur; [10]
  Plant response rating, Cocklebur: 0
cocklebur; [11]
  Plant response rating, Cocklebur: 2
Smallflower flatsedge; [1]
  Plant response rating, S. Flatsedge (0 to 10 scale, 0 is no effect, 10 is complete control): 0
Smallflower flatsedge; [2]
  S. Flatsedge plant response rating (0 to 10 scale, 0 is no effect, 10 is complete control): 0
Smallflower flatsedge; [3]
  S. Flatsedge plant response rating: 0
Smallflower flatsedge; [4]
  S. Flatsedge plant response rating: 0

## CCc1ccc(N(C(=O)n2oc(=O)n(-c3ccccc3C)c2=O)C(C)C)cc1 [Compound 230]
bamyardgrass; [13]
  Barnyardgrass plant response rating: 0
bamyardgrass; [14]
  Barnyardgrass plant response rating: 0
bamyardgrass; [15]
  Barnyardgrass plant response rating: 0
bamyardgrass; [16]
  Barnyardgrass plant response rating: 0
Sugar beet; [17]
  Sugarbeets plant response rating: 0
Sugar beet; [18]
  Sugarbeets plant response rating: 0
Sugar beet; [11]
  Plant response rating, Sugarbeets: 0
Sugar beet; [19]
  Sugarbeets plant response rating: 0
Sugar beet; [20]
  Sugarbeets plant response rating: 0
Sugar beet; [21]
  Sugarbeets plant response rating: 0
Sugar beet; Rate 250 g/ha, Postemergence
  Plant response rating (0 to 10; 0 is no effect, 10 is complete control), Sugarbeets: 0
Sugar beet; [22]
  Sugarbeets plant response rating: 0
cocklebur; [17]
  Cocklebur plant response rating: 0
cocklebur; [18]
  Cocklebur plant response rating: 0
cocklebur; [11]
  Plant response rating, Cocklebur: 0
cocklebur; [19]
  Cocklebur plant response rating: 0
cocklebur; [20]
  Cocklebur plant response rating: 0
cocklebur; [21]
  Cocklebur plant response rating: 0
cocklebur; Rate 250 g/ha, Postemergence
  Plant response rating (0 to 10; 0 is no effect, 10 is complete control), Cocklebur: 0
cocklebur; [22]
  Cocklebur plant response rating: 0
Smallflower flatsedge; [13]
  S. Flatsedge plant response rating: 0
Smallflower flatsedge; [14]
  S. Flatsedge plant response rating: 0
Smallflower flatsedge; [15]
  S. Flatsedge plant response rating: 0
Smallflower flatsedge; [16]
  S. Flatsedge plant response rating: 0

## CC(C)N(C(=O)n1oc(=O)n(CC(=O)N(C)C)c1=O)c1ccc(F)cc1F [Compound 440]
bamyardgrass; [23]
  Barnyardgrass plant response rating: 0
bamyardgrass; [24]
  Barnyardgrass plant response rating: 0
bamyardgrass; [25]
  Barnyardgrass plant response rating: 0
bamyardgrass; [26]
  Barnyardgrass plant response rating: 0
Sugar beet; [27]
  Sugarbeets plant response rating: 0
Sugar beet; [12]
  Sugarbeets plant response rating: 2
Sugar beet; [17]
  Plant response rating, Sugarbeets: 0
Sugar beet; [9]
  Plant response rating, Sugarbeets: 0
Sugar beet; [28]
  Sugarbeets plant response rating: 4
Sugar beet; [29]
  Sugarbeets plant response rating: 7
Sugar beet; [30]
  Sugarbeets plant response rating: 0
Sugar beet; [31]
  Sugarbeets plant response rating: 0
cocklebur; [27]
  Cocklebur plant response rating: 0
cocklebur; [12]
  Cocklebur plant response rating: 0
cocklebur; [9]
  Plant response rating, Cocklebur: 0
cocklebur; [28]
  Cocklebur plant response rating: 0
cocklebur; [29]
  Cocklebur plant response rating: 0
cocklebur; [30]
  Cocklebur plant response rating: 0
cocklebur; [31]
  Cocklebur plant response rating: 0
Smallflower flatsedge; [23]
  S. Flatsedge plant response rating: 0
Smallflower flatsedge; [24]
  S. Flatsedge plant response rating: 0
Smallflower flatsedge; [25]
  S. Flatsedge plant response rating: 0
Smallflower flatsedge; [26]
  S. Flatsedge plant response rating: 0

## CC(C)N(C(=O)n1oc(=O)n(-c2ccsc2)c1=O)c1ccc(F)cc1 [Compound 272]
bamyardgrass; [13]
  Barnyardgrass plant response rating: 0
bamyardgrass; [14]
  Barnyardgrass plant response rating: 0
bamyardgrass; [15]
  Barnyardgrass plant response rating: 0
bamyardgrass; [16]
  Barnyardgrass plant response rating: 0
Sugar beet; [17]
  Sugarbeets plant response rating: 0
Sugar beet; [18]
  Sugarbeets plant response rating: 0
Sugar beet; [11]
  Plant response rating, Sugarbeets: 0
Sugar beet; [32]
  Sugarbeets plant response rating: 0
Sugar beet; [21]
  Sugarbeets plant response rating: 0
Sugar beet; [33]
  Plant response rating, Sugarbeets: 0
Sugar beet; [22]
  Sugarbeets plant response rating: 0
cocklebur; [17]
  Cocklebur plant response rating: 0
cocklebur; [18]
  Cocklebur plant response rating: 0
cocklebur; [11]
  Plant response rating, Cocklebur: 0
cocklebur; [19]
  Cocklebur plant response rating: 0
cocklebur; [32]
  Cocklebur plant response rating: 0
cocklebur; [21]
  Cocklebur plant response rating: 0
cocklebur; [33]
  Plant response rating, Cocklebur: 1
cocklebur; [22]
  Cocklebur plant response rating: 1
Smallflower flatsedge; [13]
  S. Flatsedge plant response rating: 0
Smallflower flatsedge; [14]
  S. Flatsedge plant response rating: 0
Smallflower flatsedge; [15]
  S. Flatsedge plant response rating: 0
Smallflower flatsedge; [16]
  S. Flatsedge plant response rating: 0

## CCN(Cc1ccccc1)C(=O)n1oc(=O)n(-c2c(C)cccc2C)c1=O [Compound 70]
bamyardgrass; [13]
  Barnyardgrass plant response rating: 0
bamyardgrass; [14]
  Barnyardgrass plant response rating: 0
bamyardgrass; [34]
  Barnyardgrass plant response rating: 0
bamyardgrass; [35]
  Plant response rating, Barnyardgrass: 0
Sugar beet; [5]
  Sugarbeets plant response rating: 0
Sugar beet; [36]
  Sugarbeets plant response rating: 0
Sugar beet; [8]
  Sugarbeets plant response rating: 0
Sugar beet; [37]
  Plant response rating, Sugarbeets: 0
Sugar beet; [18]
  Plant response rating, Sugarbeets: 0
Sugar beet; [38]
  Sugarbeets plant response rating: 0
Sugar beet; [39]
  Sugarbeets plant response rating: 0
Sugar beet; [22]
  Sugarbeets plant response rating: 0
cocklebur; [5]
  Cocklebur plant response rating: 0
cocklebur; [36]
  Cocklebur plant response rating: 0
cocklebur; [8]
  Cocklebur plant response rating: 0
cocklebur; [37]
  Plant response rating, Cocklebur: 0
cocklebur; [18]
  Plant response rating, Cocklebur: 0
cocklebur; [38]
  Cocklebur plant response rating: 0
cocklebur; [39]
  Cocklebur plant response rating: 0
cocklebur; [22]
  Cocklebur plant response rating: 0
Smallflower flatsedge; [13]
  S. Flatsedge plant response rating: 0
Smallflower flatsedge; [14]
  S. Flatsedge plant response rating: 0
Smallflower flatsedge; [34]
  S. Flatsedge plant response rating: 0
Smallflower flatsedge; [35]
  Plant response rating, S. Flatsedge: 0

## CC(C)N(C(=O)n1oc(=O)n(CC(=O)C(C)(C)C)c1=O)c1ccc(F)cc1 [Compound 216]
bamyardgrass; [13]
  Barnyardgrass plant response rating: 0
bamyardgrass; [14]
  Barnyardgrass plant response rating: 0
bamyardgrass; [15]
  Barnyardgrass plant response rating: 0
bamyardgrass; [16]
  Barnyardgrass plant response rating: 0
Sugar beet; [17]
  Sugarbeets plant response rating: 0
Sugar beet; [18]
  Sugarbeets plant response rating: 0
Sugar beet; [11]
  Plant response rating, Sugarbeets: 0
Sugar beet; [19]
  Sugarbeets plant response rating: 0
Sugar beet; [20]
  Sugarbeets plant response rating: 0
Sugar beet; [21]
  Sugarbeets plant response rating: 0
Sugar beet; Rate 250 g/ha, Postemergence
  Plant response rating (0 to 10; 0 is no effect, 10 is complete control), Sugarbeets: 0
Sugar beet; [40]
  Sugarbeets plant response rating: 2
cocklebur; [17]
  Cocklebur plant response rating: 0
cocklebur; [18]
  Cocklebur plant response rating: 0
cocklebur; [11]
  Plant response rating, Cocklebur: 0
cocklebur; [19]
  Cocklebur plant response rating: 0
cocklebur; [20]
  Cocklebur plant response rating: 0
cocklebur; [21]
  Cocklebur plant response rating: 0
cocklebur; Rate 250 g/ha, Postemergence
  Plant response rating (0 to 10; 0 is no effect, 10 is complete control), Cocklebur: 0
cocklebur; [40]
  Cocklebur plant response rating: 3
Smallflower flatsedge; [13]
  S. Flatsedge plant response rating: 0
Smallflower flatsedge; [14]
  S. Flatsedge plant response rating: 0
Smallflower flatsedge; [15]
  S. Flatsedge plant response rating: 0
Smallflower flatsedge; [16]
  S. Flatsedge plant response rating: 0
